According to patent US20230085307A1, “PYRIDAZINONE COMPOUND AND HERBICIDE” (NISSAN CHEMICAL CORPORATION, priority 2019, published 2023):

How the values were obtained:
barnyard grass [1] = assay: Test Example 3: herbicidal effect by foliage application, Wagner pot (Table 18, symbol H); format: in vivo, barnyard grass (Echinochloa crus-galli); details: 320 g/ha
In short: (§1)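 Plants were sown in alluvial soil held under 0.1–0.5 cm standing water and grown 14 days in a greenhouse at 25–30 °C. An emulsifiable formulation, water-diluted to the set dose, was then sprayed onto the foliage, and effects were scored three weeks later using previously defined criteria.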

persian speedwell [2] = assay: Test Example 4: herbicidal effect by soil treatment (Table 19, symbol R); format: in vivo, Persian speedwell (Veronica persica); details: AAH 320 g/ha
In short: (§2)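 Soil-surface application: an emulsion agent diluted with water to the predetermined dose is sprayed uniformly over seeds lying under roughly 1.5 cm of sterilized diluvial soil. Boxes stay in a greenhouse at 25° C. to 30° C. Three weeks later, each species is graded on previously defined criteria.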

blackgrass [3] = assay: Test Example 4: herbicidal effect by soil treatment (Table 19, symbol J); format: in vivo, blackgrass (Alopecurus myosuroides); details: AAH 320 g/ha
In short: as §2

Italian ryegrass [4] = assay: Test Example 5: herbicidal effect by foliage application, plastic box (Table 20, symbol K); format: in vivo, Italian ryegrass (Lolium multiflorum); details: foliage application, AAH 320 g/ha, three weeks after application
In short: (§3)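 Sow seeds spot-wise in sterilized diluvial soil; cover with ~1.5 cm soil. Grow 14 days in greenhouse, 25° C. to 30° C. Spray foliage with emulsion diluted to predetermined amount. Rate effect after 3 weeks.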

persian speedwell [5] = assay: Test Example 5: herbicidal effect by foliage application, plastic box (Table 20, symbol R); format: in vivo, Persian speedwell (Veronica persica); details: foliage application, AAH 320 g/ha, three weeks after application
In short: as §3

southern crabgrass [6] = assay: Test Example 4: herbicidal effect by soil treatment (Table 19, symbol F); format: in vivo, southern crabgrass (Digitaria ciliaris); details: AAH 320 g/ha
In short: as §2

Chinese sprangletop = assay: Test Example 3: herbicidal effect by foliage application, Wagner pot (Table 18, symbol D); format: in vivo, chinese sprangletop (Leptochloa chinensis); details: 320 g/ha
In short: as §1

false cleavers = assay: Test Example 4: herbicidal effect by soil treatment (Table 19, symbol Q); format: in vivo, false cleavers (Galium spurium); details: AAH 320 g/ha
In short: as §2

southern crabgrass [7] = assay: Test Example 5: herbicidal effect by foliage application, plastic box (Table 20, symbol F); format: in vivo, southern crabgrass (Digitaria ciliaris); details: foliage application, AAH 320 g/ha, three weeks after application
In short: as §3

rice flat sedge = assay: Test Example 3: herbicidal effect by foliage application, Wagner pot (Table 18, symbol E); format: in vivo, rice flat sedge (Cyperus iria); details: 320 g/ha
In short: as §1

redroot pigweed [8] = assay: Test Example 5: herbicidal effect by foliage application, plastic box (Table 20, symbol N); format: in vivo, redroot pigweed (Amaranthus retroflexus); details: foliage application, AAH 320 g/ha, three weeks after application
In short: as §3

velvetleaf [9] = assay: Test Example 5: herbicidal effect by foliage application, plastic box (Table 20, symbol M); format: in vivo, velvetleaf (Abutilon theophrasti); details: foliage application, AAH 320 g/ha, three weeks after application
In short: as §3

velvetleaf [10] = assay: Test Example 4: herbicidal effect by soil treatment (Table 19, symbol M); format: in vivo, velvetleaf (Abutilon theophrasti); details: AAH 320 g/ha
In short: as §2

lambsquarters [11] = assay: Test Example 4: herbicidal effect by soil treatment (Table 19, symbol O); format: in vivo, lambsquarters (Chenopodium album); details: AAH 320 g/ha
In short: as §2

wild oat [12] = assay: Test Example 5: herbicidal effect by foliage application, plastic box (Table 20, symbol I); format: in vivo, wild oat (Avena fatua); details: foliage application, AAH 320 g/ha, three weeks after application
In short: as §3

green foxtail [13] = assay: Test Example 4: herbicidal effect by soil treatment (Table 19, symbol G); format: in vivo, green foxtail (Setaria viridis); details: AAH 320 g/ha
In short: as §2

wild oat [14] = assay: Test Example 4: herbicidal effect by soil treatment (Table 19, symbol I); format: in vivo, wild oat (Avena fatua); details: AAH 320 g/ha
In short: as §2

lambsquarters [15] = assay: Test Example 5: herbicidal effect by foliage application, plastic box (Table 20, symbol O); format: in vivo, lambsquarters (Chenopodium album); details: foliage application, AAH 320 g/ha, three weeks after application
In short: as §3

green foxtail [16] = assay: Test Example 5: herbicidal effect by foliage application, plastic box (Table 20, symbol G); format: in vivo, green foxtail (Setaria viridis); details: foliage application, AAH 320 g/ha, three weeks after application
In short: as §3

blackgrass [17] = assay: Test Example 5: herbicidal effect by foliage application, plastic box (Table 20, symbol J); format: in vivo, blackgrass (Alopecurus myosuroides); details: foliage application, AAH 320 g/ha, three weeks after application
In short: as §3

barnyard grass [18] = assay: Test Example 5: herbicidal effect by foliage application, plastic box (Table 20, symbol H); format: in vivo, barnyard grass (Echinochloa crus-galli); details: foliage application, AAH 320 g/ha, three weeks after application
In short: as §3

windgrass = assay: Test Example 5: herbicidal effect by foliage application, plastic box (Table 20, symbol L); format: in vivo, windgrass (Apera spica-venti); details: foliage application, AAH 320 g/ha, three weeks after application
In short: as §3

redroot pigweed [19] = assay: Test Example 4: herbicidal effect by soil treatment (Table 19, symbol N); format: in vivo, redroot pigweed (Amaranthus retroflexus); details: AAH 320 g/ha
In short: as §2

Italian ryegrass [20] = assay: Test Example 4: herbicidal effect by soil treatment (Table 19, symbol K); format: in vivo, Italian ryegrass (Lolium multiflorum); details: AAH 320 g/ha
In short: as §2

chickweed [21] = assay: Test Example 5: herbicidal effect by foliage application, plastic box (Table 20, symbol P); format: in vivo, common chickweed (Stellaria media); details: foliage application, AAH 320 g/ha, three weeks after application
In short: as §3

chickweed [22] = assay: Test Example 4: herbicidal effect by soil treatment (Table 19, symbol P); format: in vivo, common chickweed (Stellaria media); details: AAH 320 g/ha
In short: as §2

barnyard grass [23] = assay: Test Example 4: herbicidal effect by soil treatment (Table 19, symbol H); format: in vivo, barnyard grass (Echinochloa crus-galli); details: AAH 320 g/ha
In short: as §2

## COc1nn(C)c(=O)c(-c2c(-c3ccc(F)c(C)c3)sc3ccccc23)c1O [1-174]
Barnyard grass [1]
  herbicidal effect on H (barnyard grass), rating 0-5: 1 (Herbicidal rate of 5% or more and less than 20%)
Persian speedwell [2]
  R: persian speedwell, herbicidal effect rating: 4 (Herbicidal rate of 70% or more and less than 90%)
Blackgrass [3]
  J: blackgrass, herbicidal effect rating: 0 (Herbicidal rate of 5% or less (almost no effect))
Italian ryegrass [4]
  K: Italian ryegrass, herbicidal effect: 1 (Herbicidal rate of 5% or more and less than 20%)
Persian speedwell [5]
  R: persian speedwell, herbicidal effect: 4 (Herbicidal rate of 70% or more and less than 90%)
Southern crabgrass [6]
  F: southern crabgrass, herbicidal effect rating: 0 (Herbicidal rate of 5% or less (almost no effect))
Chinese sprangletop
  herbicidal effect on D (Chinese sprangletop), rating 0-5: 0 (Herbicidal rate of 5% or less (almost no effect))
False cleavers
  Q: false cleavers, herbicidal effect rating: 0 (Herbicidal rate of 5% or less (almost no effect))
Southern crabgrass [7]
  F: southern crabgrass, herbicidal effect: 0 (Herbicidal rate of 5% or less (almost no effect))
Rice flat sedge
  herbicidal effect on E (rice flat sedge), rating 0-5: 3 (Herbicidal rate of 40% or more and less than 70%)
Redroot pigweed [8]
  N: redroot pigweed, herbicidal effect: 0 (Herbicidal rate of 5% or less (almost no effect))
Velvetleaf [9]
  M: velvetleaf, herbicidal effect: 4 (Herbicidal rate of 70% or more and less than 90%)
Velvetleaf [10]
  M: velvetleaf, herbicidal effect rating: 0 (Herbicidal rate of 5% or less (almost no effect))
Lambsquarters [11]
  O: lambsquarters, herbicidal effect rating: 0 (Herbicidal rate of 5% or less (almost no effect))
Wild oat [12]
  I: wild oat, herbicidal effect: 0 (Herbicidal rate of 5% or less (almost no effect))
Green foxtail [13]
  G: green foxtail, herbicidal effect rating: 0 (Herbicidal rate of 5% or less (almost no effect))
Wild oat [14]
  I: wild oat, herbicidal effect rating: 0 (Herbicidal rate of 5% or less (almost no effect))
Lambsquarters [15]
  O: lambsquarters, herbicidal effect: 2 (Herbicidal rate of 20% or more and less than 40%)
Green foxtail [16]
  G: green foxtail, herbicidal effect: 2 (Herbicidal rate of 20% or more and less than 40%)
Blackgrass [17]
  J: blackgrass, herbicidal effect: 0 (Herbicidal rate of 5% or less (almost no effect))
Barnyard grass [18]
  H: barnyard grass, herbicidal effect: 0 (Herbicidal rate of 5% or less (almost no effect))
windgrass
  L: windgrass, herbicidal effect: 0 (Herbicidal rate of 5% or less (almost no effect))
Redroot pigweed [19]
  N: redroot pigweed, herbicidal effect rating: 0 (Herbicidal rate of 5% or less (almost no effect))
Italian ryegrass [20]
  K: Italian ryegrass, herbicidal effect rating: 0 (Herbicidal rate of 5% or less (almost no effect))
Chickweed [21]
  P: chickweed, herbicidal effect: 5 (Herbicidal rate of 90% or more (almost completely withered))
Chickweed [22]
  P: chickweed, herbicidal effect rating: 5 (Herbicidal rate of 90% or more (almost completely withered))
Barnyard grass [23]
  H: barnyard grass, herbicidal effect rating: 0 (Herbicidal rate of 5% or less (almost no effect))
